Data as given in US20170239307A1, “COMPOSITION OF DOXYCYCLINE IN LIPOSOMES FOR THE PREVENTION, IMPROVEMENT AND/OR TREATMENT OF OCULAR PATHOLOGIES” (AGENCIA PÚBLICA EMPRESARIAL SANITARIA HOSPITAL ALTO …, priority 2014, published 2017).

What was measured:
[1] = system: thrombosis; conditions: certain groups of hemodialysis patients; cited from earlier work
[2] = system: vascular intimal layer; conditions: patients taking doxycycline; cited from earlier work
[3] = system: aneurysmal dilatation; conditions: rats; cited from earlier work
[4] = system: diabetic retinopathy; assay: Case report: supervision of the fundus of the eye in a diabetic patient; type: in vivo; conditions: diabetic patient with high blood glucose; treatment orally and as eye drops from 11 Feb. 2009
[5] = system: chronic anterior and posterior blepharitis; assay: Case report: patient with blepharitis and glycemic decompensation, clinic examinations; conditions: same patient; high doses of oral doxycycline prescribed for 20 days, treatment abandoned
Text: Treatment with tobramycin and dexamethasone in the form of eye drops and artificial tears was established at that time.

[6] = system: symptoms derived from blepharitis-dry eye like disease; assay: Symptom score according to the dry eye questionnaire; type: in vivo, patients
Text: FIG. 2. Individual analysis of each patient according to dry eye questionnaire score. All patients completed a questionnaire to evaluate the symptoms derived from blepharitis-dry eye like disease. […] FIG. 3. […] This figure complements FIG. 2. This test was designed (see test design literature) for assessing the symptoms the patient experiences and they can be expressed by means of a score based on questions about these symptoms.

C[C@H]1c2cccc(O)c2C(O)=C2C(=O)[C@]3(O)C(=O)/C(=C(/N)O)C(=O)[C@@H](N(C)C)[C@@H]3[C@@H](O)[C@@H]21 [doxycycline, (2Z,4S,4aR,5S,5aR,6R,12aS)-2-(amino-hydroxymethylidene)-4-dimethylamino-5,10,11,12a-tetrahydroxy-6-methyl-4a,5,5a,6-tetrahydro-4H-tetracene-1,3,12-trione]
prevention of thrombosis [1]: effective in the prevention of thrombosis | vascular intimal layer proliferation and muscle cell migration [2]: less vascular intimal layer proliferation as well as less muscle cell migration | aneurysmal dilatation [3]: capable of preventing aneurysmal dilatation without subsequent signs of inflammation | signs of diabetic retinopathy [4]: no signs of diabetic retinopathy | intolerance / side effect [5]: an episode of gastritis | symptom score, dry eye questionnaire, each patient ([6]; 12 blepharitis patients, before treatment at least moderate, most severe, FIG. 2): symptoms improved | sum of all the scores in all patients, dry eye questionnaire ([6]; before vs after treatment, FIG. 3): Symptoms decreased significantly
